From ChEMBL document CHEMBL4373658, “Scaffold hybridization strategy towards potent hydroxamate-based inhibitors of Flaviviridae viruses and Trypanosoma species” (Medchemcomm, 2019) come the findings set out here.

A short description of this experiment: Inhibition of HCV genotype 1b NS3/4A protease. Details: species or system Hepatitis C virus subtype 1b.

Each structure is given as a SMILES string.

Broadly, the EC50 is the concentration at which the effect is half-maximal. Read a high EC50 as a less potent agent.

`CC[C@@H]1[C@@H]2CN(C(=O)[C@H](C(C)(C)C)NC(=O)O[C@@H]3C[C@H]3CCCCC(F)(F)c3nc4ccc(OC)cc4nc3O2)[C@@H]1C(=O)N[C@]1(C(=O)NS(=O)(=O)C2(C)CC2)C[C@H]1C(F)F` gave a concentration for a half-maximal effect (EC50) of 3.3 nM.
